{"source": "patent US9888688B2", "about": "“Tetrazolinone compounds and applications thereof” (Sumitomo Chemical Company, Limited, priority 2013, dated 2018)"}
{"system": "cotton aphid (Aphis gossypii)", "assay": "Cotton aphid control test on cucumber (Test Example 32)", "assay_type": "in vivo", "details": "144 h, 20 mL sprayed on cucumber, after 6 days", "method": "In the present Test Example, a water dilution containing a surfactant prepared by adjusting so as to contain a predetermined concentration (500 ppm) of the present compound was used as a test chemical solution. Thirty (30) heads of cotton aphid (Aphis gossypii) (including adults and larvae) were released on the leaves of cucumber grown in a polyethylene cup until the first true leaf was developed. Next day, 20 mL of the above test chemical solution was sprayed. After 6 days, the number of the surviving insects was counted and the control value was calculated by the following equation. Control value (%)={1−(Cb×Tai)/(Cai×Tb)}×100 wherein symbols in the equation represent the followings: Cb: Number of insects before spraying chemical solution in untreated area; Cai: Number of surviving insects in untreated area; Tb: Number of insects before spraying chemical solution in treated area; and Tai: Number of surviving insects in treated area.", "units": {"pest or weed control at 500 ppm": "%"}}
{"compound": "CCc1cccc(-c2ccc(OCc3c(C)cccc3-n3nnn(C)c3=O)c(C(F)(F)F)c2)n1", "note": "[Present Compound 131]", "pest or weed control at 500 ppm": "≥ 90"}
{"compound": "Cc1ccnc(-c2ccc(OCc3c(Cl)cccc3-n3nnn(C)c3=O)c(C(F)(F)F)c2)n1", "note": "[Present Compound 134]", "pest or weed control at 500 ppm": "≥ 90"}
{"compound": "CCc1cccc(-c2ccc(OCc3c(OC)cccc3-n3nnn(C)c3=O)c(C)c2)n1", "note": "[Present Compound 45]", "pest or weed control at 500 ppm": "≥ 90"}
{"compound": "CCOc1cccc(-n2nnn(C)c2=O)c1COc1ccc(-c2ccc(Cl)cn2)cc1C", "note": "[Present Compound 29]", "pest or weed control at 500 ppm": "≥ 90"}
{"compound": "Cc1cc(-c2ccc(F)cn2)c(F)cc1OCc1c(C)cccc1-n1nnn(C)c1=O", "note": "[Present Compound 195]", "pest or weed control at 500 ppm": "≥ 90"}
{"compound": "Cc1cccc(-c2ccc(OCc3ccccc3-n3nnn(C)c3=O)c(C(F)(F)F)c2)n1", "note": "[Present Compound 127]", "pest or weed control at 500 ppm": "≥ 90"}
{"compound": "CCOc1cccc(-n2nnn(C)c2=O)c1COc1ccc(-c2cccc(Cl)n2)cc1C", "note": "[Present Compound 41]", "pest or weed control at 500 ppm": "≥ 90"}
{"compound": "CCOc1cccc(-n2nnn(C)c2=O)c1COc1ccc(-c2ccccn2)cc1C", "note": "[Present Compound 8]", "pest or weed control at 500 ppm": "≥ 90"}
{"compound": "Cc1cc(-c2cccc(C#N)n2)ccc1OCc1c(C2CC2)cccc1-n1nnn(C)c1=O", "note": "[Present Compound 116]", "pest or weed control at 500 ppm": "≥ 90"}
{"compound": "CCc1cccc(-n2nnn(C)c2=O)c1COc1ccc(-c2nccc(C)n2)cc1C(F)(F)F", "note": "[Present Compound 138]", "pest or weed control at 500 ppm": "≥ 90"}
{"compound": "COc1ccncc1-c1cc(C)c(OCc2c(C)cccc2-n2nnn(C)c2=O)cc1C", "note": "[Present Compound 192]", "pest or weed control at 500 ppm": "≥ 90"}
{"compound": "Cc1ccc(-c2ccc(OCc3c(C)cccc3-n3nnn(C)c3=O)c(C)c2)nn1", "note": "[Present Compound 234]", "pest or weed control at 500 ppm": "≥ 90"}
{"compound": "C=C(C)c1cccc(-c2ccc(OCc3c(C)cccc3-n3nnn(C)c3=O)c(C)c2)n1", "note": "[Present Compound 148]", "pest or weed control at 500 ppm": "≥ 90"}
{"compound": "Cc1cc(-c2cccc(C(C)C)n2)ccc1OCc1c(C)cccc1-n1nnn(C)c1=O", "note": "[Present Compound 149]", "pest or weed control at 500 ppm": "≥ 90"}
{"compound": "Cc1cc(-c2ncc(F)cn2)c(C)cc1OCc1c(C)cccc1-n1nnn(C)c1=O", "note": "[Present Compound 238]", "pest or weed control at 500 ppm": "≥ 90"}
{"compound": "CCc1cccc(-c2ccc(OCc3ccccc3-n3nnn(C)c3=O)c(C(F)(F)F)c2)n1", "note": "[Present Compound 130]", "pest or weed control at 500 ppm": "≥ 90"}
{"compound": "Cc1ccnc(-c2ccc(OCc3ccccc3-n3nnn(C)c3=O)c(C(F)(F)F)c2)n1", "note": "[Present Compound 137]", "pest or weed control at 500 ppm": "≥ 90"}
{"compound": "Cc1ccnc(-c2ccc(OCc3c(C)cccc3-n3nnn(C)c3=O)c(C)c2)c1", "note": "[Present Compound 20]", "pest or weed control at 500 ppm": "≥ 90"}
{"compound": "Cc1cc(-c2ncc(F)cn2)ccc1OCc1c(C)cccc1-n1nnn(C)c1=O", "note": "[Present Compound 236]", "pest or weed control at 500 ppm": "≥ 90"}
{"compound": "Cc1cccc(-c2ccc(OCc3c(C)cccc3-n3nnn(C)c3=O)c(C#N)c2)n1", "note": "[Present Compound 156]", "pest or weed control at 500 ppm": "≥ 90"}
{"compound": "Cc1cc(-c2ccc(F)cn2)c(C)cc1OCc1c(C2CC2)cccc1-n1nnn(C)c1=O", "note": "[Present Compound 219]", "pest or weed control at 500 ppm": "≥ 90"}
{"compound": "Cc1cccc(-c2ccc(OCc3c(C)cccc3-n3nnn(C)c3=O)c(C(F)(F)F)c2)n1", "note": "[Present Compound 59]", "pest or weed control at 500 ppm": "≥ 90"}
{"compound": "Cc1cccc(-n2nnn(C)c2=O)c1COc1cc(Cl)c(-c2ccccn2)cc1Cl", "note": "[Present Compound 210]", "pest or weed control at 500 ppm": "≥ 90"}
{"compound": "COc1cc(-c2cccc(C)n2)ccc1OCc1c(C)cccc1-n1nnn(C)c1=O", "note": "[Present Compound 155]", "pest or weed control at 500 ppm": "≥ 90"}
{"system": "cabbage moth (Plutella xylostella)", "assay": "Cabbage moth larvae mortality test on cabbage (Test Example 31)", "assay_type": "in vivo", "details": "120 h, 500 ppm spray on cabbage 20 mL/cup, third instar larvae, 25° C., after 5 days", "method": "(§1) In the present Test Example, a water dilution containing a surfactant prepared by adjusting so as to contain a predetermined concentration (500 ppm) of the present compound was used as a test chemical solution.\nCabbage was planted in each of polyethylene cups and grown until the third true leaf or the fourth true leaf was developed. The above test chemical solution was sprayed over the cabbage (Brassicae oleracea) at a rate of 20 mL/cup. After drying the chemical solution, the polyethylene cup having a volume of 400 mL was covered. Ten (10) heads of third instar larvae of cabbage moth (Plutella xylostella) were released in the cup and the cup was covered with a Tetron fabric. The cup was held at 25° C. and, after 5 days, the number of the surviving insects was counted and the mortality of insects was calculated by the following equation.\nMortality (%)=(number of dead insects/number of test insects)×100", "units": {"mortality at 500 ppm": "%"}}
{"compound": "Cc1ccnc(-c2ccc(OCc3c(C4CC4)cccc3-n3nnn(C)c3=O)c(C)c2)n1", "note": "[Present Compound 92]", "mortality at 500 ppm": "≥ 90"}
{"compound": "Cc1cccc(-c2ccc(OCc3c(C)cccc3-n3nnn(C)c3=O)c(C)c2)n1", "note": "[Present Compound 48]", "mortality at 500 ppm": "≥ 90"}
{"system": "barley net blotch fungus (Pyrenophora teres)", "assay": "Barley net blotch control test, foliar spray on barley (Test Examples 4, 16, 17, 18)", "assay_type": "in vivo", "details": "12.5 ppm foliar spray, barley NISHINOHOSHI, inoculated after 2 days", "units": {"area of lesion spots relative to that on an untreated plant": "%"}}
{"compound": "CCOc1cccc(-n2nnn(C)c2=O)c1COc1ccc(-c2cccc(C)n2)cc1C", "note": "[Present Compound 53]", "area of lesion spots relative to that on an untreated plant": "≤ 30"}
{"system": "common house mosquito (Culex pipiens pallens)", "assay": "Common house mosquito larvae mortality test (Test Example 30)", "assay_type": "in vivo", "details": "192 h, 3.5 ppm active ingredient in water, last instar larvae, after 8 days", "method": "as §1\nThe above test chemical solution (0.7 mL) was added to 100 mL of deionized water to adjust the concentration of an active ingredient to 3.5 ppm. Twenty (20) heads of last instar larvae of common house mosquito (Culex pipiens pallens) were released in the solution and the number of dead insects was counted after 8 days.\nMortality was determined by the following equation. Mortality (%)=(number of dead insects/number of test insects)×100", "units": {"mortality at 3.5 ppm": "%"}}
{"compound": "CCc1cccc(-n2nnn(C)c2=O)c1COc1ccc(-c2nccc(C)n2)cc1C", "note": "[Present Compound 93]", "mortality at 3.5 ppm": 100}
{"compound": "Cc1cc(-c2cccc(C#N)n2)ccc1OCc1c(C2CC2)cccc1-n1nnn(C)c1=O", "note": "[Present Compound 116]", "mortality at 3.5 ppm": 100}
{"compound": "Cc1cc(-c2ncc(Cl)cn2)c(F)cc1OCc1c(C)cccc1-n1nnn(C)c1=O", "note": "[Present Compound 242]", "mortality at 3.5 ppm": 100}
{"compound": "CCc1cccc(-n2nnn(C)c2=O)c1COc1cc(C)c(-c2ccc(F)cn2)cc1C", "note": "[Present Compound 215]", "mortality at 3.5 ppm": 100}
{"compound": "Cc1cc(-c2ncc(F)cn2)ccc1OCc1c(C)cccc1-n1nnn(C)c1=O", "note": "[Present Compound 236]", "mortality at 3.5 ppm": 100}
{"system": "wheat leaf blotch fungus (Septoria tritici)", "assay": "Wheat leaf blotch control test, spray before inoculation (Test Examples 6, 9, 10, Comparative Test Example)", "assay_type": "in vivo", "details": "500 ppm foliar spray, wheat APOGEE, inoculated after 4 days", "units": {"area of lesion spots relative to that on an untreated plant": "%"}}
{"compound": "Cn1nnn(-c2ccccc2COc2ccc(-c3ccccn3)cc2)c1=O", "note": "[Present Compound 223]", "area of lesion spots relative to that on an untreated plant": "≤ 30"}
{"compound": "Cn1nnn(-c2ccccc2COc2ccc(-c3ccccc3)cc2)c1=O", "note": "[1-methyl-4-[2-(4-phenyl-phenoxymethyl)-phenyl]-1,4-dihydrotetrazol-5-one, reference compound]", "area of lesion spots relative to that on an untreated plant": "≥ 70"}
